Marks after values point to notes of the source that are not given here.
Test system: broiler chickens
Experiment: Effect of iron source and level on hemoglobin, hematocrit, performance and iron bioavailability (slope-ratio) of iron-depleted broiler chicks
Assay type: in vivo
Conditions: for Efficiency / Gain / Hematocrit / Intake: from day 7
Experimental: Experiments were conducted to determine the effect of trace mineral level and source on hemoglobin, hematocrit and performance of broiler chickens. Bioavailability of iron was determined by the common-intercept multiple linear regression (slope-ratio) method (S. Aoyagi and D. H. Baker, Nutritional evaluation of a copper-methionine complex for chicks, Poult. Sci. 1993; 72:2309-15). For the first 7 days, chicks were fed a semi-purified diet based on dextrose, corn starch and casein (see Table 1), but with a low level of corn in order to encourage food intake. The calculated iron concentration was 25 ppm and the adaptation period was done in order to deplete iron stores received via the egg.
Beginning on day 7, chicks were provided experimental diets containing the three iron sources added to the basal diet as tabulated below. The three iron sources are commercial grade iron sulphate (FeSO4) (Comparative Example A), siderite (Comparative Example B) and agglomerated particles of starch and crystallites of iron(II) carbonate (Example 1; in accordance with the disclosure) (see Table 2). The agglomerated particles were prepared by grinding siderite to a d90 value below 5 subsequently mixing the ground iron(II) carbonate, starch and water, and spray drying the dispersion. The resulting agglomerated particles have a mean particle size of […]; the content of iron(II) carbonate is 36.94 wt %, based on the total weight of the agglomerated particles.
Birds were raised in Petersime batteries and all metal (feeders, waterers, raised wire floors) in contact with the birds was stainless steel. Water was deionized.
Statistical Analysis: Hemoglobin, hematocrit and performance data were regressed against dietary iron level for each source to obtain linear dose response relationships and bioavailability was calculated from the ratio of the slopes to that of FeSO4. Data (excluding the basal treatment) was also analyzed as a […]×4 level factorial arrangement of treatments. Slope ratios were calculated using the 0, 15, and 25 ppm added levels.

[1] = 15 ppm added iron in basal diet
[2] = 25 ppm added iron in basal diet

In the case of `O=S(=O)([O-])[O-].[Fe+2]` [Comparative Example A, iron sulphate (FeSO4)], the Efficiency [1] is reported as 0.59 gain/feed, the Gain [1] is reported as 523.9 g/chick and the Hematocrit [1] is reported as 38.3%. The Intake [1] was 888.2 g/chick, the Efficiency [2] was 0.62 gain/feed and the Gain [2] was 548.5 g/chick. The Hematocrit [2] was 37.2%, the Intake [2] was 884.0 g/chick and the “Efficiency, main effect mean for iron source” value (across all levels) was 0.61 gain/feed. For the same compound, the “Gain, main effect mean for iron source” value (across all levels) was 531.8 g/chick, the “Hematocrit, main effect mean for iron source” value (across all levels) was 37.3% and the “Intake, main effect mean for iron source” value (across all levels) was 867.5 ^a g/chick.

From US20200146314A1, “TRACE MINERAL COMPOSITION” (Nutreco IP Assets B.V., priority 2017, published 2020)
